# In US8987302B2, “Treatment of hepatitis C virus related diseases using hydroxychloroquine or a combination of hydroxychloroquine and an anti-viral agent” (Panmed Ltd., priority 2010, dated 2015):
# Experiments:
# [1] = test system: JFH1/CsN6A4 infected Huh7 cells; assay: Microarray gene expression in JFH1/CsN6A4 infected Huh7 cells; details: for Number of genes modulated by both HCQ and CQ, Down-regulated / Number of genes modulated by both HCQ and CQ, Up-regulated: 40 μM; for Number of genes modulated by both HCQ and CQ, Down-regulated: FC≦0.5; for Number of genes modulated by both HCQ and CQ, Up-regulated: FC≧2; for number of the 118 HCV modulated genes down-regulated (FC≦0.5) by both compounds / number of the 118 HCV modulated genes up-regulated (FC≧2) by both compounds / expression of genes involved in the IFN signaling: 48 hours treatment; for expression of genes involved in the IFN signaling: IFN 100IU
# HCV genotype 1b replicon = assay: HCV RNA replication in Huh7 replicon cells (RT-PCR), single drugs and combinations; format: cell-based, hepatitis C virus; details: alone, 72 hours
# NiV = details: hamster, in vivo; cited from earlier work
# HeV = details: hamster, in vivo; cited from earlier work
# [2] = test system: Huh7 harboring replicon cells; assay: Microarray gene expression in Huh7 harboring replicon cells; format: cell-based, Human; details: 10 μM
# Huh 5-2 cells = details: 6.6 μM; cited from earlier work
# [3] = test system: HCV replicon-Huh-7/neo cells; assay: Replication levels of HCV replicon by NPTII quantification; details: 0.5, 1 or 10 μM, 72 hours
# replicon cells = assay: Cytotoxicity, MTS assay of replicon cells; details: tested doses, 72 hours
# [4] = after either 12 hours or 48 hours of treatment
# [5] = cut-off at 12 hours and 24 hours
# [6] = 48 h of antiviral treatment, vs untreated infected cells
compound,measurement,setting,value
"CCN(CC)CCCC(C)Nc1ccnc2cc(Cl)ccc12 (stereo not drawn) [CQ, chloroquine]","Number of genes modulated by both HCQ and CQ, Down-regulated",[1]; 12 h,9
same,"Number of genes modulated by both HCQ and CQ, Up-regulated",[1]; 12 h,38
same,"Number of genes modulated by both HCQ and CQ, Down-regulated",[1]; 48 h,262
same,"Number of genes modulated by both HCQ and CQ, Up-regulated",[1]; 48 h,24
same,Number of genes Induced by JFH1 infection and Down-regulated by treatment,[1]; 48 h,104
same,Number of genes Induced by JFH1 infection and Up-regulated by treatment,[1]; 48 h,1
same,Number of genes Repressed by JFH1 infection and Down-regulated by treatment,[1]; 48 h,2
same,Number of genes Repressed by JFH1 infection and Up-regulated by treatment,[1]; 48 h,11
same,number of the 118 HCV modulated genes down-regulated (FC≦0.5) by both compounds,[1],106
same,number of the 118 HCV modulated genes up-regulated (FC≧2) by both compounds,[1],12
same,genes significantly up-regulated in common with HCQ and CQ,[1]; [4],62 genes
same,HCV RNA replication,HCV genotype 1b replicon,inhibited HCV RNA replication
same,protection of hamsters,NiV,did not protect hamsters
same,protection of hamsters,HeV,did not protect hamsters
"CCN(CCO)CCCC(C)Nc1ccnc2cc(Cl)ccc12 (stereo not drawn) [HCQ, 2-[[4-[(7-chloro-4-quinolinyl)amino]pentyl]ethylamino]ethanol, reference compound]","Number of genes modulated by both HCQ and CQ, Down-regulated",[1]; 12 h,9
same,"Number of genes modulated by both HCQ and CQ, Up-regulated",[1]; 12 h,38
same,"Number of genes modulated by both HCQ and CQ, Down-regulated",[1]; 48 h,262
same,"Number of genes modulated by both HCQ and CQ, Up-regulated",[1]; 48 h,24
same,Number of genes Induced by JFH1 infection and Down-regulated by treatment,[1]; 48 h,104
same,Number of genes Induced by JFH1 infection and Up-regulated by treatment,[1]; 48 h,1
same,Number of genes Repressed by JFH1 infection and Down-regulated by treatment,[1]; 48 h,2
same,Number of genes Repressed by JFH1 infection and Up-regulated by treatment,[1]; 48 h,11
same,number of the 118 HCV modulated genes down-regulated (FC≦0.5) by both compounds,[1],106
same,number of the 118 HCV modulated genes up-regulated (FC≧2) by both compounds,[1],12
same,expression of genes involved in the IFN signaling,[1],None of the genes regulated by IFN were found to be modulated
same,genes significantly down-modulated in common with HCQ and CQ,[1]; [4],271 genes
same,genes significantly up-regulated in common with HCQ and CQ,[1]; [4],62 genes
same,"Number of genes transcriptionally modulated, Down-regulated",[2]; 6 hours,5
same,"Number of genes transcriptionally modulated, Down-regulated",[2]; 12 hours,30
same,"Number of genes transcriptionally modulated, Up-regulated",[2]; 12 hours,7
same,"Number of genes transcriptionally modulated, Down-regulated",[2]; 24 hours,63
same,"Number of genes transcriptionally modulated, Up-regulated",[2]; 24 hours,23
same,number of significantly repressed genes (FC≦0.5) among the 23 modulated genes,[2]; [5],20
same,number of up-regulated genes (FC≧2) among the 23 modulated genes,[2]; [5],3
same,HCV RNA replication,HCV genotype 1b replicon,inhibited HCV RNA replication in a dose dependent manner
same,cell growth with respect to the untreated control,Huh 5-2 cells,more than 81%
same,"replication level of HCV replicon (% NPTII), number of HCV infected cells",[3],dose-dependent decrease
"NC(=O)c1ncn([C@@H]2O[C@H](CO)[C@@H](O)[C@H]2O)n1 [Ribavirin, ribavirin]",delay of death from viral disease,NiV,approximately 5 days
same,effect on death from viral disease,HeV,no significant effect
IFNα,"Fold Change, AMBRA1",[1]; [6],0.4
same,"Fold Change, ATF2",[1]; [6],0.4
same,"Fold Change, ATF3",[1]; [6],0.2
same,"Fold Change, ATF4",[1]; [6],0.5
same,"Fold Change, ATF7IP",[1]; [6],0.4
same,"Fold Change, ATG2A",[1]; [6],0.3
same,"Fold Change, ATG4B",[1]; [6],1.3
same,"Fold Change, ATG7",[1]; [6],0.9
same,"Fold Change, ATG12",[1]; [6],0.8
same,"Fold Change, BBC3",[1]; [6],0.1
same,"Fold Change, BCL3",[1]; [6],0.4
same,"Fold Change, BECN1",[1]; [6],1.4
same,"Fold Change, BMF",[1]; [6],0.2
same,"Fold Change, CXCL5",[1]; [6],1.3
same,"Fold Change, CYP1A1",[1]; [6],0.4
same,"Fold Change, CYR61",[1]; [6],0.2
same,"Fold Change, DAPK3",[1]; [6],0.3
same,"Fold Change, DDIT3",[1]; [6],0.1
same,"Fold Change, DDIT4",[1]; [6],0.3
same,"Fold Change, DUSP1",[1]; [6],0.1
same,"Fold Change, DUSP4",[1]; [6],0.2
same,"Fold Change, DUSP8",[1]; [6],0.1
same,"Fold Change, FOXO3",[1]; [6],0.5
same,"Fold Change, GABARAPL1",[1]; [6],0.4
same,"Fold Change, GADD45A",[1]; [6],0.2
same,"Fold Change, GADD45B",[1]; [6],0.1
same,"Fold Change, GADD45G",[1]; [6],0.3
same,"Fold Change, HRK",[1]; [6],0.7
same,"Fold Change, ICAM1",[1]; [6],2.0
same,"Fold Change, IKBKAP",[1]; [6],1.3
same,"Fold Change, JUN",[1]; [6],0.2
same,"Fold Change, MAP1LC3B",[1]; [6],0.4
same,"Fold Change, MYC",[1]; [6],0.3
same,"Fold Change, NFKB1",[1]; [6],0.8
same,"Fold Change, NFKBIA",[1]; [6],0.3
same,"Fold Change, NFKBIB",[1]; [6],0.4
same,"Fold Change, NFKBIE",[1]; [6],0.3
same,"Fold Change, NFKBIL2",[1]; [6],1.5
same,"Fold Change, NKIRAS1",[1]; [6],0.4
same,"Fold Change, NKIRAS2",[1]; [6],1.0
same,"Fold Change, NKRF",[1]; [6],1.0
same,"Fold Change, PDRG1",[1]; [6],0.6
same,"Fold Change, PIK3C3",[1]; [6],0.5
same,"Fold Change, PRKAA1",[1]; [6],0.3
same,"Fold Change, RELB",[1]; [6],0.4
same,"Fold Change, SESN2",[1]; [6],0.2
same,"Fold Change, SIRT1",[1]; [6],0.5
same,"Fold Change, SQSTM1",[1]; [6],0.5
same,"Fold Change, STK11",[1]; [6],0.9
same,"Fold Change, TANK",[1]; [6],1.2
same,"Fold Change, TNFRSF10B",[1]; [6],0.6
same,"Fold Change, TRAF2",[1]; [6],0.7
same,"Fold Change, TRAF4",[1]; [6],0.7
same,"Fold Change, TSC1",[1]; [6],0.6
same,"Fold Change, TSC2",[1]; [6],0.9
same,"Fold Change, UBD",[1]; [6],0.8
same,"Fold Change, ULK1",[1]; [6],0.3
same,expression of genes involved in the IFN signaling,[1],significantly increased
same,HCV RNA replication,HCV genotype 1b replicon,inhibited HCV RNA replication in a dose dependent manner
same,cell viability,replicon cells,not affected
